The values below are quoted from earlier work in US5576012A, “Pharmaceutical aqueous formulations containing a sparingly soluble pharmaceutical active compound with a solubilizing polymeric agent” (priority 1990, dated 1996).

Experiment in data set [1]: not given
The source holds these as a separate data set.

Like-named read-outs stand apart in the source and are kept apart here.

Regarding `CCO` [ethanol], under “intravasal”, the Intravasal hemolytic reactions result is given as “detectable”.

Regarding `CC(C)c1cccc(C(C)C)c1O` [propofol, reference compound], the “water-solubility (in words)” value in data set [1] (active compounds for intravasal use) is given as “too low to dissolve the therapeutic dose in an acceptable volume”.

For `CC(O)CO` (stereo not drawn) [propylene glycol], the Intravasal hemolytic reactions entry (in vivo) is “detectable”.

`OC[C@H]1O[C@@H]2O[C@H]3[C@H](O)[C@@H](O)[C@@H](O[C@H]4[C@H](O)[C@@H](O)[C@@H](O[C@H]5[C@H](O)[C@@H](O)[C@@H](O[C@H]6[C@H](O)[C@@H](O)[C@@H](O[C@H]7[C@H](O)[C@@H](O)[C@@H](O[C@H]1[C@H](O)[C@H]2O)O[C@@H]7CO)O[C@@H]6CO)O[C@@H]5CO)O[C@@H]4CO)O[C@@H]3CO` [α-CD, α-cyclodextrin]: the water-solubility in data set [1] (cyclodextrins in water) is listed as 17.4%.

As for `OC[C@H]1O[C@@H]2O[C@H]3[C@H](O)[C@@H](O)[C@@H](O[C@H]4[C@H](O)[C@@H](O)[C@@H](O[C@H]5[C@H](O)[C@@H](O)[C@@H](O[C@H]6[C@H](O)[C@@H](O)[C@@H](O[C@H]7[C@H](O)[C@@H](O)[C@@H](O[C@H]8[C@H](O)[C@@H](O)[C@@H](O[C@H]1[C@H](O)[C@H]2O)O[C@@H]8CO)O[C@@H]7CO)O[C@@H]6CO)O[C@@H]5CO)O[C@@H]4CO)O[C@@H]3CO` [β-CD, β-cyclodextrin], the “toxic action on parenteral administration” value (administered parenterally) is “nephrotoxic action”.

Consider `OC[C@H]1O[C@@H]2O[C@H]3[C@H](O)[C@@H](O)[C@@H](O[C@H]4[C@H](O)[C@@H](O)[C@@H](O[C@H]5[C@H](O)[C@@H](O)[C@@H](O[C@H]6[C@H](O)[C@@H](O)[C@@H](O[C@H]7[C@H](O)[C@@H](O)[C@@H](O[C@H]8[C@H](O)[C@@H](O)[C@@H](O[C@H]9[C@H](O)[C@@H](O)[C@@H](O[C@H]1[C@H](O)[C@H]2O)O[C@@H]9CO)O[C@@H]8CO)O[C@@H]7CO)O[C@@H]6CO)O[C@@H]5CO)O[C@@H]4CO)O[C@@H]3CO` [γ-CD, γ-cyclodextrin], for which the water-solubility in data set [1] (water) is 25.8%.
